Experimental data reported in US20110257242A1, “3-PHENYL-3-METHOXYPYRROLIDINE DERIVATIVES AS MODULATORS OF CORTICAL CATECHOLAMINERGIC NEUROTRANSMISSION” (NSAB, FILIAL AF NEUROSEARCH SWEDEN AB, SVERIGE, priority 2008, published 2011).

Tested on: MK-801 pre-treated rats
Test: Locomotor activity in MK-801 pre-treated rats (antipsychotic activity model)
Conditions: MK-801 0.7 mg/kg i.p., no test compound, recorded between 30 and 60 minutes

C[C@]12N[C@H](Cc3ccccc31)c1ccccc12 [MK-801]
Locomotor activity, MK-801 alone: 48068 counts/30 min
